Measured values taken from patent publication US20240174690A1, “ANNULATED 2-AMINO-3-CYANO THIOPHENES AND DERIVATIVES FOR THE TREATMENT OF CANCER” (BOEHRINGER INGELHEIM INTERNATIONAL GMBH, priority 2021, published 2024).
≈ marks a conversion by molar mass, not a printed value. Read-outs that look alike come from different tables or passages of the source.

Tests used:
[1] = Plasma protein binding assay (PPB), equilibrium dialysis, 10% FCS in PBS; assay type: in vitro ADME; settings: bovine, read-out: PPB 10% FCS (% fu)
Method in brief: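 Equilibrium dialysis (5-10 kg/mol cut-off membrane) of 1-10 μmol/L test compound in 10% FCS/PBS against PBS with or without dextran, 3-5 h at 37° C. Compound in each chamber quantified by LC-MS after protein precipitation; fu calculated from Cserum and Cbuffer.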

[2] = system: KRAS G12C-dependent Ba/F3 cells; assay: Ba/F3 proliferation assay, KRAS G12C; assay type: cell-based; settings: Mus musculus, BaF3, 72 h, AlamarBlue
Method in brief: (§1)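 Transforming KRAS G12 mutants replaced IL-3 dependence in retrovirally engineered Ba/F3 cells, with puromycin omitted about ten days before testing. Growth under compound was quantified with an AlamarBlue fluorescent viability stain, in duplicate, by curve fitting.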

[3] = system: AsPC-1 cells; assay: AsPC-1 CTG proliferation assay (120 h) (pancreatic cancer, G12D); assay type: cell-based; settings: Homo sapiens, ASPC1
Method in brief: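 AsPC-1 cells (KRAS G12D), 2000/well in RPMI with 10% FCS, seeded overnight, then treated with compound for 120 h at 37 °C. Viability by CellTiter-Glo luminescence as percent of DMSO control. IC50 from a four-parameter non-linear fit.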

[4] = system: LOVO cells; assay: LOVO CTG proliferation assay (120 h) (CRC, G13D); assay type: cell-based; settings: Homo sapiens, CTG 120 h
Method in brief: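 LOVO cells, 1000 per well in DMEM + 10% FCS, were plated overnight and then dosed with compound from DMSO stock. After 120 h at 37 °C, viability was read by CellTiter-Glo luminescence as a percentage of DMSO controls. IC50 was derived by four-parameter non-linear regression.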

[5] = Solubility measurement (DMSO solution method), McIlvaine buffer pH 4.5 or 6.8; assay type: physicochemical; settings: aqueous buffer, kinetic from dmso stock, DMSO stock diluted to 250 μM, 24 h shaking at ambient temperature
Method in brief: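 DMSO stock diluted into McIlvaine buffer, pH 4.5 or 6.8, to 250 µM final, shaken 24 h at ambient temperature. Precipitate removed by filtration; filtrate quantified by LC-UV against a fully dissolved reference in acetonitrile/water 1:1.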

[6] = system: SAS cells; assay: SAS CTG proliferation assay (120 h) (HNSCC, wt amplified); assay type: cell-based
Method in brief: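 SAS cells plated at 300 per well in DMEM:F12 with 10% FCS and left overnight, then given compounds acoustically. After 120 h exposure, viability read by CellTiter-Glo as percent of DMSO control. IC50 from four-parameter non-linear regression.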

[7] = system: KRAS G12V-dependent Ba/F3 cells; assay: Ba/F3 proliferation assay, KRAS G12V; assay type: cell-based; settings: Mus musculus, BaF3, 72 h, AlamarBlue;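 also: proliferation IC50 in KRAS G12V-dependent Ba/F3 cells read by AlamarBlue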
Method in brief: as §1

[8] = McIlvaine buffer pH 4.5, read-out: solubility pH 4.5
[9] = McIlvaine buffer pH 6.8, read-out: solubility pH 6.8

Row | Structure (SMILES) | fraction unbound [1] | IC50 [2] | IC50 [3] | IC50 [4] | solubility at 24 h [5, 8] | solubility at 24 h [5, 9] | IC50 [6] | IC50 [7]
1 | CO[C@@H]1C[C@@H]([C@H](C)Oc2cc(-c3ccn(C)n3)nc(-c3onc4c3CCC[C@@]43CCCc4sc(N)c(C#N)c43)n2)N(C)C1 [I-23] | 0.2 | 10 nM | 8160 nM | 79 nM | 106 µg/mL (≈ 176 µM) | < 1 µg/mL | 24 nM | 7 nM
2 | Cc1nc(-c2cc(O[C@@H](C)[C@@H]3CCCN3C)nc(-c3onc4c3CCC[C@@]43CCCc4sc(N)c(C#N)c43)n2)cs1 [I-24] | 0.19 | 9 nM | 3450 nM | 101 nM | 68 µg/mL (≈ 116 µM) | < 1 µg/mL | 77 nM | 5 nM
3 | C[C@H](Oc1cc(-c2ccc(N)nc2)nc(-c2onc3c2CCC[C@@]32CCCc3sc(N)c(C#N)c32)n1)[C@@H]1CCCN1C [I-25] | 0.35 | 92 nM | 3450 nM | 1060 nM | > 170 µg/mL | 44 µg/mL (≈ 75.5 µM) | 285 nM | 57 nM
4 | C[C@H](Oc1cc(-c2cnsc2)nc(-c2onc3c2CCC[C@@]32CCCc3sc(N)c(C#N)c32)n1)[C@@H]1CCCN1C [I-27] | 0.21 | 18 nM | 2120 nM | 265 nM | 67 µg/mL (≈ 117 µM) | 1 µg/mL (≈ 1.74 µM) | 109 nM | 7 nM
5 | Cc1ccc(-c2cc(O[C@@H](C)[C@@H]3CCCN3C)nc(-c3onc4c3CCC[C@@]43CCCc4sc(N)c(C#N)c43)n2)cn1 [I-28] | 0.3 | 67 nM | 3420 nM | 390 nM | 93 µg/mL (≈ 160 µM) | 8 µg/mL (≈ 13.8 µM) | 934 nM | 41 nM
6 | C[C@H](Oc1cc(-n2nccn2)nc(-c2onc3c2CCC[C@@]32CCCc3sc(N)c(C#N)c32)n1)[C@@H]1CCCN1C [I-29] | 0.54 | 18 nM | 10300 nM | 1650 nM | > 114 µg/mL | 82 µg/mL (≈ 147 µM) | 97 nM | 15 nM
7 | C[C@H](Oc1cc(-c2ccn(C[C@@H](C)O)n2)nc(-c2onc3c2CCC[C@@]32CCCc3sc(N)c(C#N)c32)n1)[C@@H]1CCCN1C [I-30] | 0.46 | 9 nM | 4570 nM | 66 nM | > 150 µg/mL | > 141 µg/mL | 50 nM | 8 nM
8 | C[C@H](Oc1cc(-n2ccnn2)nc(-c2onc3c2CCC[C@@]32CCCc3sc(N)c(C#N)c32)n1)[C@@H]1CCCN1C [I-32] | 0.48 | 3 nM | 4440 nM | 159 nM | 100 µg/mL (≈ 179 µM) | 14 µg/mL (≈ 25.1 µM) | 52 nM | 3 nM
9 | C[C@H](Oc1cc(-c2ccn3ncnc3c2)nc(-c2onc3c2CCC[C@@]32CCCc3sc(N)c(C#N)c32)n1)[C@@H]1CCCN1C [I-33] | 0.31 | 14 nM | 3710 nM | 574 nM | 8 µg/mL (≈ 13.2 µM) | 4 µg/mL (≈ 6.58 µM) | 81 nM | 14 nM
10 | C[C@H](Oc1cc(-c2ccn(C3COC3)n2)nc(-c2onc3c2CCC[C@@]32CCCc3sc(N)c(C#N)c32)n1)[C@@H]1CCCN1C [I-34] | 0.54 | 7 nM | 4150 nM | 161 nM | > 135 µg/mL | 92 µg/mL (≈ 150 µM) | 185 nM | 14 nM
11 | C[C@H](Oc1cc(N2CCN(C)C3(COC3)C2)nc(-c2onc3c2CCC[C@@]32CCCc3sc(N)c(C#N)c32)n1)[C@@H]1C[C@@H](F)CN1C [I-37] | 0.26 | 1180 nM | 609 nM | 165 nM | > 149 µg/mL | 17 µg/mL (≈ 26.2 µM) | 412 nM | 1340 nM
12 | C[C@H](Oc1cc(N2CCN(C)C3(CC3)C2)nc(-c2onc3c2CCC[C@@]32CCCc3sc(N)c(C#N)c32)n1)[C@@H]1C[C@@H](F)CN1C [I-39] | 0.07 | 613 nM | 149 nM | 354 nM | > 147 µg/mL | < 1 µg/mL | 1200 nM | 895 nM
13 | C[C@H](Oc1cc(N2C[C@H](C)N(C)[C@@H](C)C2)nc(-c2onc3c2CCC[C@@]32CCCc3sc(N)c(C#N)c32)n1)[C@@H]1CCCN1C [I-43] | 0.73 | 170 nM | 1000 nM | 554 nM | > 346 µg/mL | > 306 µg/mL | 1800 nM | 302 nM
14 | C[C@H](Oc1cc(N2CCNC3(CC3)C2)nc(-c2onc3c2CCC[C@@]32CCCc3sc(N)c(C#N)c32)n1)[C@@H]1C[C@@H](F)CN1C [I-45] | 0.14 | 280 nM | 32 nM | 315 nM | > 148 µg/mL | > 86 µg/mL | 1190 nM | 453 nM
15 | CO[C@H]1CCN(C)[C@@H]1[C@H](C)Oc1cc(-n2ccc(CC(=O)NC(C)C)n2)nc(-c2onc3c2CCC[C@@]32CCCc3sc(N)c(C#N)c32)n1 [I-48] | 0.12 | 4 nM | 384 nM | 23 nM | > 161 µg/mL | 7 µg/mL (≈ 10.2 µM) | 13 nM | 4 nM
16 | CO[C@H]1CCN(C)[C@@H]1[C@H](C)Oc1cc(N2CCNC3(CC3)C2)nc(-c2onc3c2CCC[C@@]32CCCc3sc(N)c(C#N)c32)n1 [I-49] | 0.15 | 130 nM | 20 nM | 223 nM | > 154 µg/mL | 43 µg/mL (≈ 68.2 µM) | 905 nM | 184 nM
17 | CO[C@@H]1C[C@@H]([C@H](C)Oc2cc(N3CCN(C)C4(CC4)C3)nc(-c3onc4c3CCC[C@@]43CCCc4sc(N)c(C#N)c43)n2)N(C)C1 [I-50] | 0.14 | 448 nM | 115 nM | 439 nM | > 139 µg/mL | 95 µg/mL (≈ 147 µM) | 2900 nM | 811 nM
18 | CO[C@H]1CCN(C)[C@@H]1[C@H](C)Oc1cc(-n2ccc(C(=O)N[C@@H]3CCOC3)n2)nc(-c2onc3c2CCC[C@@]32CCCc3sc(N)c(C#N)c32)n1 [I-53] | 0.05 | 2 nM | 414 nM | 29 nM | > 152 µg/mL | 5 µg/mL (≈ 7.14 µM) | 13 nM | 1 nM
